In this test the target is human APJ receptor (Homo sapiens (Human), UniProt P35414). Put plainly: [35S]GTPγS binding assay on membranes from CHO cells stably expressing human APJ receptor. Particulars: read-out: Activity hAPJ SPA EC50 IP. Format: biochemical. The essentials: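 Membranes from CHO cells stably expressing human APJ incubated with ligand, 0.2 nM [35S]GTPγS and WGA SPA beads in HEPES pH 7.5 with 5 mM MgCl2, 200 mM NaCl, 3 μM GDP, 90 min at RT. Nonspecific binding defined with 100 μM GTPγS; EC50 by non-linear regression.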
A general note: Binding of GTPγS marks nucleotide exchange on a G protein.

pEC50: −log10 of the molar value.

human APJ receptor, sequence (P35414 whole entry): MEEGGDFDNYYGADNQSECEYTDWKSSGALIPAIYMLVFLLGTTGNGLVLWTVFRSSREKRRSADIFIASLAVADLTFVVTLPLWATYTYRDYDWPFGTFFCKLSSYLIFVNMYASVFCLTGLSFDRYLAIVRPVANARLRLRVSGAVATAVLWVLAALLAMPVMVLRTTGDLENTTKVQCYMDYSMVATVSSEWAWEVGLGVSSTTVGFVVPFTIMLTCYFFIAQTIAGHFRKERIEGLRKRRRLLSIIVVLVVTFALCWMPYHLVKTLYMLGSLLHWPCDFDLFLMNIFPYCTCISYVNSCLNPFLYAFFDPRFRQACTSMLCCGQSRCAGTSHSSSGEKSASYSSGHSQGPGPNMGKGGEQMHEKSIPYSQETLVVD

With “(1R,2S)-N-(4-(1,3-dimethoxy-2-propanyl)-5-((2R,5R)-5-methyltetrahydro-2-furanyl)-4H-1,2,4-triazol-3-yl)-1-methoxy-1-(5-methoxy-2-pyrazinyl)-2-propanesulfonamide or (1R,2S)-N-(4-(1,3-dimethoxy-2-propanyl)-5-((2S,5S)-5-methyltetrahydro-2-furanyl)-4H-1,2,4-triazol-3-yl)-1-methoxy-1-(5-methoxy-2-pyrazinyl)-2-propanesulfonamide [Example 378.0]”, the pEC50 (commonly −log10 of the EC50, conventionally taken in molar units) was 6.77.

For the substance “(1R,2S)-N-(4-(1,3-dimethoxy-2-propanyl)-5-((2R,5R)-5-methyltetrahydro-2-furanyl)-4H-1,2,4-triazol-3-yl)-1-methoxy-1-(5-methoxy-2-pyrazinyl)-2-propanesulfonamide or (1R,2S)-N-(4-(1,3-dimethoxy-2-propanyl)-5-((2S,5S)-5-methyltetrahydro-2-furanyl)-4H-1,2,4-triazol-3-yl)-1-methoxy-1-(5-methoxy-2-pyrazinyl)-2-propanesulfonamide [Example 379.0]”, the pEC50 is 7.68.

Take “(1R,2S)-N-(4-(2,6-dimethoxyphenyl)-5-((R)-1,4-dioxan-2-yl)-4H-1,2,4-triazol-3-yl)-1-ethoxy-1-(5-methylpyrimidin-2-yl)propane-2-sulfonamide or (1R,2S)-N-(4-(2,6-dimethoxyphenyl)-5-((S)-1,4-dioxan-2-yl)-4H-1,2,4-triazol-3-yl)-1-ethoxy-1-(5-methylpyrimidin-2-yl)propane-2-sulfonamide [Example 203.0]”: the negative-log EC50 (pEC50) was 7.48.

Consider “(1R,2S)-N-(4-(2,6-dimethoxyphenyl)-5-((R)-1,4-dioxan-2-yl)-4H-1,2,4-triazol-3-yl)-1-ethoxy-1-(5-methylpyrimidin-2-yl)propane-2-sulfonamide or (1R,2S)-N-(4-(2,6-dimethoxyphenyl)-5-((S)-1,4-dioxan-2-yl)-4H-1,2,4-triazol-3-yl)-1-ethoxy-1-(5-methypyrimidin-2-yl)propane-2-sulfonamide [Example 204.0]”, for which the negative logarithm of the EC50 (pEC50) was 7.00.

“(1R,2S)-N-(4-(2,6-dimethoxyphenyl)-5-((R)-1,4-dioxan-2-yl)-4H-1,2,4-triazol-3-yl)-1-methoxy-1-(5-methylpyrimidin-2-yl)propane-2-sulfonamide or (1R,2S)-N-(4-(2,6-dimethoxyphenyl)-5-((S)-1,4-dioxan-2-yl)-4H-1,2,4-triazol-3-yl)-1-methoxy-1-(5-methylpyrimidin-2-yl)propane-2-sulfonamide [Example 202.0]”: the pEC50 was 6.92.

Turning to “(1R,2S)-N-(4-(2,6-dimethoxyphenyl)-5-((S)-3-oxoisoindolin-1-yl)-4H-1,2,4-triazol-3-yl)-1-methoxy-1-(5-methylpyrimidin-2-yl)propane-2-sulfonamide or (1R,2S)-N-(4-(2,6-dimethoxyphenyl)-5-((R)-3-oxoisoindolin-1-yl)-4H-1,2,4-triazol-3-yl)-1-methoxy-1-(5-methylpyrimidin-2-yl)propane-2-sulfonamide [Example 236.0]”, the pEC50 is below 5.38.

With “(1R,2S)-N-(4-(2,6-dimethoxyphenyl)-5-((S)-3-oxoisoindolin-1-yl)-4H-1,2,4-triazol-3-yl)-1-methoxy-1-(5-methylpyrimidin-2-yl)propane-2-sulfonamide or (1R,2S)-N-(4-(2,6-dimethoxyphenyl)-5-((R)-3-oxoisoindolin-1-yl)-4H-1,2,4-triazol-3-yl)-1-methoxy-1-(5-methylpyrimidin-2-yl)propane-2-sulfonamide [Example 237.0]”, the pEC50 is 6.23.

For the substance “(1R,2S)-N-(4-(2,6-dimethoxyphenyl)-5-((S)-tetrahydro-2H-pyran-3-yl)-4H-1,2,4-triazol-3-yl)-1-hydroxy-1-(5-methylpyrimidin-2-yl)propane-2-sulfonamide or (1R,2S)-N-(4-(2,6-dimethoxyphenyl)-5-((R)-tetrahydro-2H-pyran-3-yl)-4H-1,2,4-triazol-3-yl)-1-hydroxy-1-(5-methylpyrimidin-2-yl)propane-2-sulfonamde [Example 194.0]”, the pEC50 is 7.70.

Turning to “(1R,2S)-N-(4-(2,6-dimethoxyphenyl)-5-((S)-tetrahydro-2H-pyran-3-yl)-4H-1,2,4-triazol-3-yl)-1-hydroxy-1-(5-methylpyrimidin-2-yl)propane-2-sulfonamide or (1R,2S)-N-(4-(2,6-dimethoxyphenyl)-5-((R)-tetrahydro-2H-pyran-3-yl)-4H-1,2,4-triazol-3-yl)-1-hydroxy-1-(5-methylpyrimidin-2-yl)propane-2-sulfonamide [Example 193.0]”, the negative-log EC50 (pEC50) was 6.74.

For the substance “(1R,2S)-N-(4-(4,6-dimethoxypyrimidin-5-yl)-5-((S)-tetrahydrofuran-2-yl)-4H-1,2,4-triazol-3-yl)-1-methoxy-1-(5-methylpyrazin-2-yl)propane-2-sulfonamide or (1R,2S)-N-(4-(4,6-dimethoxypyrimidin-5-yl)-5-((R)-tetrahydrofuran-2-yl)-4H-1,2,4-triazol-3-yl)-1-methoxy-1-(5-methylpyrazin-2-yl)propane-2-sulfonamide [Example 185.0]”, the pEC50 is 6.29.

“(1R,2S)-N-(4-(4,6-dimethoxypyrimidin-5-yl)-5-((S)-tetrahydrofuran-2-yl)-4H-1,2,4-triazol-3-yl)-1-methoxy-1-(5-methylpyrazin-2-yl)propane-2-sulfonamide or (1R,2S)-N-(4-(4,6-dimethoxypyrimidin-5-yl)-5-((R)-tetrahydrofuran-2-yl)-4H-1,2,4-triazol-3-yl)-1-methoxy-1-(5-methylpyrazin-2-yl)propane-2-sulfonamide [Example 186.0]”: the pEC50 is 7.10.

With “(1R,2S)-N-(4-([1,1′-bi(cyclopropyl)]-1-yl)-5-((2R)-1,4-dioxan-2-yl)-4H-1,2,4-triazol-3-yl)-1-methoxy-1-(5-methyl-2-pyrazinyl)-2-propanesulfonamide or (1R,2S)-N-(4-([1,1′-bi(cyclopropyl)]-1-yl)-5-((2S)-1,4-dioxan-2-yl)-4H-1,2,4-triazol-3-yl)-1-methoxy-1-(5-methyl-2-pyrazinyl)-2-propanesulfonamide [Example 328.0]”, the pEC50 is 6.64.

With “(1R,2S)-N-(4-([1,1′-bi(cyclopropyl)]-1-yl)-5-((2R)-1,4-dioxan-2-yl)-4H-1,2,4-triazol-3-yl)-1-methoxy-1-(5-methyl-2-pyrazinyl)-2-propanesulfonamide or (1R,2S)-N-(4-([1,1′-bi(cyclopropyl)]-1-yl)-5-((2S)-1,4-dioxan-2-yl)-4H-1,2,4-triazol-3-yl)-1-methoxy-1-(5-methyl-2-pyrazinyl)-2-propanesulfonamide [Example 329.0]”, the pEC50 is 5.89.

With “(1R,2S)-N-(4-([1,1′-bi(cyclopropyl)]-1-yl)-5-((2S)-1,4-dioxan-2-yl)-4H-1,2,4-triazol-3-yl)-1-(5-chloro-2-pyrimidinyl)-1-methoxy-2-propanesulfonamide or (1R,2S)-N-(4-([1,1′-bi(cyclopropyl)]-1-yl)-5-((2R)-1,4-dioxan-2-yl)-4H-1,2,4-triazol-3-yl)-1-(5-chloro-2-pyrimidinyl)-1-methoxy-2-propanesulfonamide [Example 325.0]”, the pEC50 was 7.85.

For the origin of these results see patent US10150760B2, “Compounds for use in preparing heterocyclic triazole agonists of the APJ receptor” (AMGEN INC., priority 2016, dated 2018).
